{"source": "ChEMBL document CHEMBL1201862", "about": "“PubChem BioAssay data set” (2004)", "key": {"[1]": {"molecular_target": "Alkaline phosphatase, placental type (Homo sapiens, UniProt P05187)", "sequence (P05187 whole entry)": "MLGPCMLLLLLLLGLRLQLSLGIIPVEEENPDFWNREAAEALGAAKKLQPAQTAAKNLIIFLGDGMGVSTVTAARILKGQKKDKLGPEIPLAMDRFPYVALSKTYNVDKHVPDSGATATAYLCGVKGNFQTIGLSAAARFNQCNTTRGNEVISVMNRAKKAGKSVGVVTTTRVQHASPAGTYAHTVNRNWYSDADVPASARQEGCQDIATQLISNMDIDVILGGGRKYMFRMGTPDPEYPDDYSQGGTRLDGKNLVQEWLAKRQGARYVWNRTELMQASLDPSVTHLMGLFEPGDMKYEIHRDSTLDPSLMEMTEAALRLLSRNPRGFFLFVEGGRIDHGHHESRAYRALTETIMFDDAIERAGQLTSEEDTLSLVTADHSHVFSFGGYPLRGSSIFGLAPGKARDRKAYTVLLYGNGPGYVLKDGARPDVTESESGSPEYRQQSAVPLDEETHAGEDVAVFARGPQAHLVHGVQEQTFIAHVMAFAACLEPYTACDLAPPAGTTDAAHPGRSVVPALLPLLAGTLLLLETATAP", "assay": "PLAP enzyme inhibitors, confirmation, biochemical, luminescence (AID 1512)", "type": "functional"}, "[2]": {"molecular_target": "T1, Alkaline phosphatase, tissue-nonspecific isozyme (Homo sapiens, UniProt P05186)", "T1 sequence (P05186 whole entry)": "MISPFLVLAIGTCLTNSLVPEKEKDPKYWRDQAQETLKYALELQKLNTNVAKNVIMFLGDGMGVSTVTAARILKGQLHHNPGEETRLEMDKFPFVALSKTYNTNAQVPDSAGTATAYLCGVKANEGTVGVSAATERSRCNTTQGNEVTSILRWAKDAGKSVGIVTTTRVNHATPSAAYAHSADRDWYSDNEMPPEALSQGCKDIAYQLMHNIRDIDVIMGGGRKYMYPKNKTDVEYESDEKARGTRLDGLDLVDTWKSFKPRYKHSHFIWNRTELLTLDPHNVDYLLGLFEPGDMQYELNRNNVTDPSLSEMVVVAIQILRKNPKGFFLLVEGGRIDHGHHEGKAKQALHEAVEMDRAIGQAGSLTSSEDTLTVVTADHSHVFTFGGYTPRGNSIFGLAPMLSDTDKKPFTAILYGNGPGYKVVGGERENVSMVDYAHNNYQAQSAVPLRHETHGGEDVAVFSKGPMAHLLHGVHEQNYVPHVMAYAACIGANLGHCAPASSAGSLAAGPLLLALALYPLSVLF", "assay": "human TNAP enzyme inhibitors, SAR follow-up, biochemical, luminescent, dose response (AID 1056)"}, "[3]": {"assay": "Shn3 3'UTR reporter inhibitors, dose response, cell-based, Clone20 osteoblasts, firefly luciferase, cherry-picked (AID 624132)", "type": "functional"}, "[4]": {"molecular_target": "Nonstructural protein 1 (Influenza A virus, UniProt Q194T2)", "sequence (Q194T2 whole entry)": "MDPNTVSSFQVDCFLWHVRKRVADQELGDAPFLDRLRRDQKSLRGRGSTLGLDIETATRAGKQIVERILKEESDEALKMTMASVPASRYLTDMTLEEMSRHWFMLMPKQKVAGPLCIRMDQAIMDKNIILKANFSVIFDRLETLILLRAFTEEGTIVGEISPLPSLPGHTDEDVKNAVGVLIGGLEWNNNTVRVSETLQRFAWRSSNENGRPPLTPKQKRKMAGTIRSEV", "type": "functional, Influenza A virus (A/California/07/2009(H1N1))"}, "[5]": {"molecular_target": "T2, Hexokinase HKDC1 (Homo sapiens, UniProt Q2TB90)", "T2 sequence (Q2TB90 whole entry)": "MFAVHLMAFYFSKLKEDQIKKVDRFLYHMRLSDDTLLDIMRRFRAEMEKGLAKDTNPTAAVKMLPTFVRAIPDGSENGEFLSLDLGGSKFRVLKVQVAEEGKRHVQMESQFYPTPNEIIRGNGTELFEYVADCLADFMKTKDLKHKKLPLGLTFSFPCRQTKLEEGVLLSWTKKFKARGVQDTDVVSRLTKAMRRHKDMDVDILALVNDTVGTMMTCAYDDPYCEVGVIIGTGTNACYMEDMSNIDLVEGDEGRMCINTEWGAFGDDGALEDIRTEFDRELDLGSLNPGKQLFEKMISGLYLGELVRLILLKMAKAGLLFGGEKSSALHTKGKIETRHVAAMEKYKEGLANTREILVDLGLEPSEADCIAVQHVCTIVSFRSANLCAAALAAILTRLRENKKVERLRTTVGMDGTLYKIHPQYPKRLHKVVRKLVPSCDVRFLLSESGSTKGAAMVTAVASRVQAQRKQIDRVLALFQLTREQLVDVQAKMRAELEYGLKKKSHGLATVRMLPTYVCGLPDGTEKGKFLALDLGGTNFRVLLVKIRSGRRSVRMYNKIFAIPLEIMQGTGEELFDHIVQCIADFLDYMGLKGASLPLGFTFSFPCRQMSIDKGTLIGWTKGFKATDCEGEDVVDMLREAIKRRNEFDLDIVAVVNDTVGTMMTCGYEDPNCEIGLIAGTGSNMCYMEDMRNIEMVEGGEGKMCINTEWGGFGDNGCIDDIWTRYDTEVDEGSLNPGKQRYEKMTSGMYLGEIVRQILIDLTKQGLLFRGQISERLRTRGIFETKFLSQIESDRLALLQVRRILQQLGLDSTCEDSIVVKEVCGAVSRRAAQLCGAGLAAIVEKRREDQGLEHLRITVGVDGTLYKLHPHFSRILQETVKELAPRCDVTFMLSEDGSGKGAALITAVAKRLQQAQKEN", "assay": "HKDC1 hexokinase activators, dose response, biochemical, W721R variant (AID 504730)", "type": "functional"}, "[6]": {"molecular_target": "T3, Hexokinase-1 (Homo sapiens, UniProt P19367)", "T3 sequence (P19367 whole entry)": "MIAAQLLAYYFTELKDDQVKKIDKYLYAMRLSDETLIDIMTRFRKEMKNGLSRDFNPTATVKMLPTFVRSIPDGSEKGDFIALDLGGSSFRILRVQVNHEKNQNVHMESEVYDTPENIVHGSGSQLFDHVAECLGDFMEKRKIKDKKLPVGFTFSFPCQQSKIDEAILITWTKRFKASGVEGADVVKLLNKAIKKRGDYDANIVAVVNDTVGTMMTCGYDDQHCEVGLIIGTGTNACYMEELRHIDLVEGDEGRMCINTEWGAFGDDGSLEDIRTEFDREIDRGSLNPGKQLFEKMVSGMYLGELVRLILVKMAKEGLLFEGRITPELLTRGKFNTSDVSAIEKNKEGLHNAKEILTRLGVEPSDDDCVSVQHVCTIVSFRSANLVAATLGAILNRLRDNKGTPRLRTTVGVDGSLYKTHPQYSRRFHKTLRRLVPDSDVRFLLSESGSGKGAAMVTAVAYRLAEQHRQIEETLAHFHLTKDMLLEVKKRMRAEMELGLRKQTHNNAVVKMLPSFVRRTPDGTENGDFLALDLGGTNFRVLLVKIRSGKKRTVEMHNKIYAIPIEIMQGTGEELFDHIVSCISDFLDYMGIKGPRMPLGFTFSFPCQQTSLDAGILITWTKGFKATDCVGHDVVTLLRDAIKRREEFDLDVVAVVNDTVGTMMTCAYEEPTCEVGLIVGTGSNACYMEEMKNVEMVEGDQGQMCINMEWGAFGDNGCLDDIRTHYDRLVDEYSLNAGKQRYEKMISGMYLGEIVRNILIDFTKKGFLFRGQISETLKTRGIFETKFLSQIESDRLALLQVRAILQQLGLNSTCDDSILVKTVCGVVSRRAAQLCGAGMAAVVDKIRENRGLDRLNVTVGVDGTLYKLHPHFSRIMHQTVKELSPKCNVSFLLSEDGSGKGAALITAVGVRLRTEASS", "assay": "hexokinase 1 activators, dose response, selectivity assay for HKDC1 activator project, biochemical (AID 504762)", "type": "functional"}, "[7]": {"molecular_target": "Heat shock protein HSP 90-alpha (Homo sapiens, UniProt P07900)", "type": "functional, organism-based"}, "[8]": {"molecular_target": "Trypsin (Sus scrofa, UniProt P00761)", "sequence (P00761 whole entry)": "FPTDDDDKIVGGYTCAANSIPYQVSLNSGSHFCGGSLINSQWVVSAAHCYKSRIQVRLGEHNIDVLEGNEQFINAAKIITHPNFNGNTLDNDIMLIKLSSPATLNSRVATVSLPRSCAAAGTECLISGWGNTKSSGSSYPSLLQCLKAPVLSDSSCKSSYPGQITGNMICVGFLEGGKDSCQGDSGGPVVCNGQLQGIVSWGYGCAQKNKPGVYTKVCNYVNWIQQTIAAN", "assay": "porcine trypsin inhibitors, dose response, selectivity assay for Rce1 protease inhibitor project, biochemical, quenched peptide fluorescence, cherry-pick (AID 488789)"}, "[9]": {"molecular_target": "Large T antigen (Simian virus 40, UniProt P03070)", "sequence (P03070 whole entry)": "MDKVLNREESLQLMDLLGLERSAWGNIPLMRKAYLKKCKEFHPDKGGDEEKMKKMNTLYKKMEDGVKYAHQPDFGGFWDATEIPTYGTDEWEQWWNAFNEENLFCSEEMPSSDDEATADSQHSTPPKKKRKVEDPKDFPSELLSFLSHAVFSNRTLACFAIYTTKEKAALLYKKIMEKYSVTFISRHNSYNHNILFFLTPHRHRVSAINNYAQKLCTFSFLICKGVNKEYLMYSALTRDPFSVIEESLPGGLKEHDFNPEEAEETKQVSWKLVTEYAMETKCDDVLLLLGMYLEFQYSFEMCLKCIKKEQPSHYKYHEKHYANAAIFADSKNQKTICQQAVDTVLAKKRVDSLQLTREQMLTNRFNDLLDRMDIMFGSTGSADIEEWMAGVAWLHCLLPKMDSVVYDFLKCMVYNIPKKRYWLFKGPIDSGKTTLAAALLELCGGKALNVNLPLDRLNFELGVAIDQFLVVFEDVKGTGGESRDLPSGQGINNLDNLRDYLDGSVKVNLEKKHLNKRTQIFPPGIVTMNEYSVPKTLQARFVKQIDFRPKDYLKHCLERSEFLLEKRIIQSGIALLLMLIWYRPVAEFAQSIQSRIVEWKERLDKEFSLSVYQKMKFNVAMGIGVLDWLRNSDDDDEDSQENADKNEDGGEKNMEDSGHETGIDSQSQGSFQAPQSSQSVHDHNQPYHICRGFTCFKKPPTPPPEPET", "type": "functional, Betapolyomavirus macacae"}, "[10]": {"molecular_target": "CAAX prenyl protease 2 (Saccharomyces cerevisiae S288c, UniProt Q03530)", "sequence (Q03530 whole entry)": "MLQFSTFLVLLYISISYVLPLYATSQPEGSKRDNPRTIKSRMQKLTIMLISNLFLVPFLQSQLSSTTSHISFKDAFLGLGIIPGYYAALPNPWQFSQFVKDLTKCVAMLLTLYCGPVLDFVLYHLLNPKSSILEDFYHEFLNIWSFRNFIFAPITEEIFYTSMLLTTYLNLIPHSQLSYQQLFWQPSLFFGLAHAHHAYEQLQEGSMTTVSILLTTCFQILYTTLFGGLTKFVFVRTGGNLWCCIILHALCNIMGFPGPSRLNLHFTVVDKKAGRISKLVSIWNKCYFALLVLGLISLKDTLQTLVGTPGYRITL", "type": "biochemical"}, "[11]": {"molecular_target": "T4, Mitochondrial peptide methionine sulfoxide reductase (Bos taurus, UniProt P54149)", "T4 sequence (P54149 whole entry)": "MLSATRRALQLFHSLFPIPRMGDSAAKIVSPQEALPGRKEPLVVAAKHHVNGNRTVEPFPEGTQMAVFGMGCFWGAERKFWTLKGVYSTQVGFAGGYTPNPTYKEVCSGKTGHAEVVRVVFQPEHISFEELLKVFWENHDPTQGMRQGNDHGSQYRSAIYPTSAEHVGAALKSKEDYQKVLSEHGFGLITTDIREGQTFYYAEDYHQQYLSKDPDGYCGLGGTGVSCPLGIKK", "assay": "Absorbance-based biochemical high throughput dose response assay for activators of Methionine sulfoxide reductase A (MsrA).", "type": "functional"}, "[12]": {"molecular_target": "Glucose-6-phosphate 1-dehydrogenase (Homo sapiens, UniProt P11413)", "sequence (P11413 whole entry)": "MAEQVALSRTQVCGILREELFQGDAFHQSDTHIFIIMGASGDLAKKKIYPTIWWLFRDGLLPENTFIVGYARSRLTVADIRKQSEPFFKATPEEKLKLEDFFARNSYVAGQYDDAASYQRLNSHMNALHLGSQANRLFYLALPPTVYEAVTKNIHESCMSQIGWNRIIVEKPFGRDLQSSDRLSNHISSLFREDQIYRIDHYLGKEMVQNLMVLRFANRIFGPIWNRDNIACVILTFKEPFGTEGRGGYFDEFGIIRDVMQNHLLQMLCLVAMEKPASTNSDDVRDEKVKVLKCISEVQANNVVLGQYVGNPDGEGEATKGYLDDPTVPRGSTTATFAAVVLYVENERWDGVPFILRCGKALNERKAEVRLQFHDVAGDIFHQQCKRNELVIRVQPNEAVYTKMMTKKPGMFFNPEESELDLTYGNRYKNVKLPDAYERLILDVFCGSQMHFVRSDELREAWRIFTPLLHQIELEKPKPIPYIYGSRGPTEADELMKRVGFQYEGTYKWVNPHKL", "assay": "human G6PD enzyme inhibitors, dose response, selectivity assay for P. falciparum G6PD inhibitor project, biochemical, fluorescence (AID 504792)", "type": "functional"}, "[13]": {"molecular_target": "Hexokinase (Trypanosoma brucei, UniProt Q38C41)", "sequence (Q38C41 whole entry)": "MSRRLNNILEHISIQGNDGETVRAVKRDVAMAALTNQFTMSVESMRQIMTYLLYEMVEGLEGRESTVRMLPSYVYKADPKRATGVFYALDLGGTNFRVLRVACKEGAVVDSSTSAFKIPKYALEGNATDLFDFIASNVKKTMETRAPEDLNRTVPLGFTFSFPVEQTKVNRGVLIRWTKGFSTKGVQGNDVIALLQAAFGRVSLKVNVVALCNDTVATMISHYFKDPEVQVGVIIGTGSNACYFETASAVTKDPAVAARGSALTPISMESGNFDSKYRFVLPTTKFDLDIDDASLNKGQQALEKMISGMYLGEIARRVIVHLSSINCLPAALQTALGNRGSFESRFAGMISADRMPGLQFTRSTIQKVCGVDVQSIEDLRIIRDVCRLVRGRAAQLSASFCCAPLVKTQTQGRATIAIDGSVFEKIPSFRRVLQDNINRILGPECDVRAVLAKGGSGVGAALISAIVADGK", "assay": "Confirmation assay for inhibitors of Trypanosoma brucei hexokinase 1-Analogue-first series. [Related pubchem assays (depositor defined):AID1430, AID1632, AID2516, AID2560, AID2579, AID2600, AID449725, AID492951]", "type": "functional"}, "[14]": {"molecular_target": "Intestinal-type alkaline phosphatase (Homo sapiens, UniProt P09923)", "sequence (P09923 whole entry)": "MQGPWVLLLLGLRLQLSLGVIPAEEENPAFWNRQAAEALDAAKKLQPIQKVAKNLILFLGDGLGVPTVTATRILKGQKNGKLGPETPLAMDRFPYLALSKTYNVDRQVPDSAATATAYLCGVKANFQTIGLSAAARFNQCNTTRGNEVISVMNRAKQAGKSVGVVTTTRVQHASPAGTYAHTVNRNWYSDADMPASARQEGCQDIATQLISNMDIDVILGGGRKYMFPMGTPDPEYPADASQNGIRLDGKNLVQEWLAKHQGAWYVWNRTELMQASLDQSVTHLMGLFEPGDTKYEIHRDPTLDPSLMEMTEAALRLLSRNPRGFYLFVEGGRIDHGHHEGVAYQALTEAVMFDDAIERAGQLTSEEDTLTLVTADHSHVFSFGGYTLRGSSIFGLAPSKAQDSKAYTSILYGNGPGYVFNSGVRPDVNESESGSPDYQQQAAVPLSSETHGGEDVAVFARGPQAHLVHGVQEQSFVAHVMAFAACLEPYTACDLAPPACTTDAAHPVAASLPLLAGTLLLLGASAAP", "assay": "human intestinal alkaline phosphatase activators, dose response, biochemical, luminescence, uHTS hits (AID 463120)", "type": "functional"}}, "note": "Calls of active or inactive are those of the source."}
{"compound": "Cc1ccc(-c2nnc(SCC(=O)c3ccc(O)c(O)c3)n2-c2ccc(Cl)cc2)cc1", "values": [{"measurement": "IC50", "setting": "[1]", "value": "15.3 µM (active)"}, {"measurement": "IC50", "setting": "[2]", "value": "> 100 µM (inactive)"}]}
{"compound": "CC(N/N=C(\\S)N1CCN(c2ccccn2)CC1)c1nccc2ccccc12", "note": "(centres undefined)", "values": [{"measurement": "AC50", "setting": "[3]", "value": "< 0.26 µM (active)"}, {"measurement": "IC50", "setting": "[4]", "value": "2.43 µM (active)"}, {"measurement": "EC50", "setting": "[5]", "value": "2.19 µM (active)"}, {"measurement": "EC50", "setting": "[6]", "value": "> 80 µM (inactive)"}, {"measurement": "AC50", "setting": "[7]", "value": "2.58 µM (active)"}]}
{"compound": "O=C(O)c1ccc(-c2ccc(O)c(F)c2)cc1", "values": [{"measurement": "AC50", "setting": "[8]", "value": "11.9 µM (active)"}, {"measurement": "IC50", "setting": "[9]", "value": "6.76 µM (active)"}, {"measurement": "AC50", "setting": "[10]", "value": "> 100 µM (inactive)"}]}
{"compound": "N#Cc1ccc2sn(-c3ccccc3)c(=O)c2c1", "values": [{"measurement": "EC50", "setting": "[11]", "value": "> 104 µM (inactive)"}, {"measurement": "IC50", "setting": "[12]", "value": "14.1 µM (active)"}, {"measurement": "IC50", "setting": "[13]", "value": "2.97 µM (active)"}]}
{"compound": "Cc1ccc(O)c(-c2cc(C(=O)NCc3ccc4c(c3)OCO4)[nH]n2)c1", "values": [{"measurement": "EC50", "setting": "[14]", "value": "13 µM (active)"}]}
